Consider three compounds from ChEMBL document CHEMBL2086250, “Long-acting peptidomimetics based DPP-IV inhibitors” (Bioorg Med Chem Lett, 2012).

SMILES strings stand for the structures. The source made the active and inactive calls.

Data set [1] is described as follows: Cmax in C57BL/6J mouse at 20 mg/kg, po administered as single dose. More on the design: dose 20 mg/kg, route oral. The following applies: in vivo. Format: ADME, organism-based.
A short description of data set [2]: AUC (0 to alpha) in C57BL/6J mouse at 20 mg/kg, po administered as single dose. Format: ADME, organism-based. More on the design: dose 20 mg/kg, route oral. The following applies: plasma.
The test system of data set [3] is Mus musculus. The experiment in a line: Antidiabetic activity against C57BL/6J mouse assessed as reduction serum glucose AUC levels at 20 mg/kg, po measured up to 240 mins by IPGTT method. The data set is classed as functional, organism-based. More on the design: dose 20 mg/kg.
Data set [4] concerns Mus musculus. Kind of data set: Antidiabetic activity against C57BL/6J mouse assessed as reduction serum glucose AUC levels at 20 mg/kg, po measured up to 60 mins by IPGTT method. Format: functional, organism-based. More on the design: dose 20 mg/kg.
Data set [5] relates to Mus musculus. Kind of data set: Antidiabetic activity against C57BL/6J mouse assessed as reduction serum glucose AUC levels at 20 mg/kg, po measured up to 30 mins by IPGTT method. The data set is classed as functional, organism-based. More on the design: dose 20 mg/kg.
A short description of data set [6]: Tmax in C57BL/6J mouse at 20 mg/kg, po administered as single dose. The settings on record: in vivo. Format: ADME, organism-based. More on the design: dose 20 mg/kg, route oral.
Data set [7] is described as follows: Oral bioavailability in C57BL/6J mouse at 20 mg/kg administered as single dose. Format: ADME, organism-based. The settings on record: in vivo.
Data set [8] is described as follows: Half life in C57BL/6J mouse at 20 mg/kg, po administered as single dose. Format: ADME, organism-based. The settings on record: in vivo. More on the design: dose 20 mg/kg, route oral.
The subject of data set [9] is Mus musculus. Kind of data set: Antidiabetic activity against C57BL/6J mouse assessed as reduction serum glucose AUC levels at 20 mg/kg, po measured up to 120 mins by IPGTT method. Format: functional, organism-based. More on the design: dose 20 mg/kg.
Data set [10] in a line: Elimination rate constant in C57BL/6J mouse at 20 mg/kg administered as single dose. The data set is classed as ADME, organism-based. More on the design: dose 20 mg/kg. The following applies: in vivo.

What is called Cmax is the highest concentration seen after dosing. A word on the AUC: it is the area under the concentration-time curve, a measure of exposure. Broadly, the Tmax is the time at which the peak concentration occurs. In general, bioavailability refers to dose-corrected exposure relative to a reference, in per cent. Read a low bioavailability as poor availability. Broadly, the half-life is the time needed for the level to fall by half in the phase considered. High values mean slow decline, low ones rapid decline. `N#Cc1ccc(NCCNCC(=O)N2CCC[C@H]2C#N)nc1`: the highest level in [1] (Cmax) was 6200 ng/mL. The AUC in [2] was 6490 ng·h/mL. The result in the data set with Mus musculus [3] and in the data set with Mus musculus [9] was inactive. Besides, the outcome with Mus musculus [4] and with Mus musculus [5] was Active. Besides, the Tmax in data set [6] worked out at 19.2 min. This compound also had a bioavailability in data set [7] of 65%. In addition, the half-life in data set [8] was 52.8 min.
In data set [1], `N#C[C@@H]1CCCN1C(=O)CCCNC(=O)c1ccc(C(F)(F)F)cc1` registered a Cmax of 5900 ng/mL. The compound also returned an exposure (AUC) in data set [2] of 6890 ng·h/mL. The compound also had a k el in [10] of 0.000228 s⁻¹. Besides, the outcome with Mus musculus [3] and with Mus musculus [9] was inactive. The result in the data set with Mus musculus [4] and with Mus musculus [5] was Active. The Tmax in [6] worked out at 16.8 min. The bioavailability in [7] was 63.1%. In data set [8], the half-life was 59.4 min.
In turn, `N#Cc1ccc(C(=O)NCCCC(=O)N2CCC[C@H]2C#N)cc1` returned a maximum concentration (Cmax) in [1] of 7100 ng/mL. The compound also showed an AUC in [2] of 14300 ng·h/mL. Besides, in data set [10], the k el was 3.06e-05 s⁻¹. In addition, the outcome in the data set with Mus musculus [3], in the data set with Mus musculus [4], in the data set with Mus musculus [5] and with Mus musculus [9] was Active. For the same compound, the time of peak concentration (Tmax) in data set [6] was 17.4 min. For the same compound, in data set [7], the bioavailability is 72.5%. Also, in data set [8], the half-life is 479 min.
